From ChEMBL document CHEMBL1201862, “PubChem BioAssay data set” (2004)
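Five concentrations, 48 hours, 96-well plates. GI50 = concentration required for 50% inhibition of growth.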 Calls of active or inactive are those of the source. Cut-off read from the data, not from the text of the source: active = GI50 up to about 1.1 µM and inactive = higher.

Tests used:
Assay in all cases: NCI tumour cell line growth inhibition, 48 h
[1] = test system: A549
[2] = test system: CCRF-CEM
[3] = test system: EKVX
[4] = test system: HCC 2998
[5] = test system: HOP-62
[6] = test system: MDA-MB-435
[7] = test system: Malme-3M
[8] = test system: NCI-H23
[9] = test system: NCI-H522
[10] = test system: OVCAR-3
[11] = test system: PC-3
[12] = test system: SF-268
[13] = test system: SF-295
[14] = test system: SK-MEL-28
[15] = test system: SK-MEL-2
[16] = test system: SK-OV-3
[17] = test system: SR
[18] = test system: SW-620
[19] = test system: UO-31
[20] = test system: M14

| Compound | GI50 [1] | GI50 [2] | GI50 [3] | GI50 [4] | GI50 [5] | GI50 [6] | GI50 [7] | GI50 [8] | GI50 [9] | GI50 [10] | GI50 [11] | GI50 [12] | GI50 [13] | GI50 [14] | GI50 [15] | GI50 [16] | GI50 [17] | GI50 [18] | GI50 [19] | GI50 [20] |
| --- | --- | --- | --- | --- | --- | --- | --- | --- | --- | --- | --- | --- | --- | --- | --- | --- | --- | --- | --- | --- |
| CC(C)(C)[Si](C)(C)O[C@@H](C(=O)OC1C=CCCC1)[C@@H](NC(=O)c1ccccc1)c1ccccc1 (stereo partly specified) | 17.6 µM (inactive) | 12.1 µM (inactive) | 31.7 µM (inactive) | 14.1 µM (inactive) | 18.4 µM (inactive) | 29.3 µM (inactive) | 40.3 µM (inactive) | 29 µM (inactive) | 16.6 µM (inactive) | 16.1 µM (inactive) | 9.1 µM (inactive) | 69.5 µM (inactive) | 18.9 µM (inactive) | 34 µM (inactive) | 18 µM (inactive) | 84.1 µM (inactive) | 15.1 µM (inactive) | 26.2 µM (inactive) | 27.7 µM (inactive) | – |
| CN(CCCN=C=S)CCCN1c2ccccc2CCc2ccccc21 | 1.71 µM (inactive) | 1.85 µM (inactive) | 1.88 µM (inactive) | 1.31 µM (inactive) | 1.83 µM (inactive) | 1.79 µM (inactive) | 1.99 µM (inactive) | 1.64 µM (inactive) | 1.95 µM (inactive) | 1.66 µM (inactive) | 1.69 µM (inactive) | 1.71 µM (inactive) | 1.71 µM (inactive) | 2.06 µM (inactive) | 1.86 µM (inactive) | 1.63 µM (inactive) | 0.456 µM (active) | 2.23 µM (inactive) | 1.62 µM (inactive) | 1.71 µM (inactive) |
| O=C(CC(O)c1cccnc1)CC(O)c1cccnc1 (stereo unspecified) | 20.6 µM (inactive) | 3.02 µM (inactive) | 20.9 µM (inactive) | 3.82 µM (inactive) | 21.9 µM (inactive) | 16.4 µM (inactive) | 18.4 µM (inactive) | 22.5 µM (inactive) | 13.4 µM (inactive) | 14.7 µM (inactive) | 15.8 µM (inactive) | 25.5 µM (inactive) | 15.4 µM (inactive) | 19.5 µM (inactive) | 18.9 µM (inactive) | 17.5 µM (inactive) | 2.78 µM (inactive) | 4.97 µM (inactive) | 17.4 µM (inactive) | 14.2 µM (inactive) |
| CCOC(=O)c1cc(-c2ccc(OC)c(OC)c2)cn1C | > 10 µM (inactive) | > 10 µM (inactive) | > 10 µM (inactive) | > 10 µM (inactive) | > 10 µM (inactive) | > 10 µM (inactive) | > 10 µM (inactive) | > 10 µM (inactive) | > 10 µM (inactive) | > 10 µM (inactive) | > 10 µM (inactive) | > 10 µM (inactive) | > 10 µM (inactive) | > 10 µM (inactive) | > 10 µM (inactive) | > 10 µM (inactive) | > 10 µM (inactive) | – | > 10 µM (inactive) | > 10 µM (inactive) |
| CC(C)/C(Cl)=N\OC(=O)Nc1ccc(C#N)cc1 | 20 µM (inactive) | 1.05 µM (active) | 2.58 µM (inactive) | 16.4 µM (inactive) | 17.5 µM (inactive) | 8.04 µM (inactive) | 2.62 µM (inactive) | 15.2 µM (inactive) | 1.75 µM (inactive) | 16.8 µM (inactive) | 16.5 µM (inactive) | 19.2 µM (inactive) | 19 µM (inactive) | 12.1 µM (inactive) | 11.8 µM (inactive) | 17.3 µM (inactive) | 2.17 µM (inactive) | 1.81 µM (inactive) | 9.02 µM (inactive) | 3.01 µM (inactive) |
| COc1cc(/C=C2\C[C@H]3[C@@H]4CCc5cc(O)ccc5[C@H]4CC[C@]3(C)C2=O)cc(OC)c1OC | 15.6 µM (inactive) | 12.9 µM (inactive) | 10.1 µM (inactive) | 12.9 µM (inactive) | 12.4 µM (inactive) | 16.9 µM (inactive) | 2.53 µM (inactive) | 14.4 µM (inactive) | 1.83 µM (inactive) | 11.4 µM (inactive) | 10.1 µM (inactive) | 8.73 µM (inactive) | 12.6 µM (inactive) | 11.8 µM (inactive) | 14 µM (inactive) | 21.2 µM (inactive) | 3.21 µM (inactive) | 16.7 µM (inactive) | 11.6 µM (inactive) | 16.8 µM (inactive) |
| COc1ccc(NC(C)=O)cc1N1C(=O)/C(=C\c2cc(OC)c(OC)c(OC)c2)S(=O)(=O)C1c1ccccc1 (stereo unspecified) | 61.7 µM (inactive) | 29.3 µM (inactive) | 23.5 µM (inactive) | > 100 µM (inactive) | 78.2 µM (inactive) | 39.7 µM (inactive) | 78.3 µM (inactive) | 71.4 µM (inactive) | 45.5 µM (inactive) | 60.3 µM (inactive) | 39.3 µM (inactive) | – | 55 µM (inactive) | 39.3 µM (inactive) | > 100 µM (inactive) | > 100 µM (inactive) | 33 µM (inactive) | 50.4 µM (inactive) | 38.7 µM (inactive) | 69.5 µM (inactive) |
| O=C1OCc2c1cc1cc3c(cc1c2-c1ccc2c(c1)OCO2)OCO3.O=C1OCc2cc3cc4c(cc3c(-c3ccc5c(c3)OCO5)c21)OCO4 | – | 3.34 µM (inactive) | – | 18.7 µM (inactive) | 6.31 µM (inactive) | 1.87 µM (inactive) | 37.2 µM (inactive) | 28.8 µM (inactive) | – | 4 µM (inactive) | 8.38 µM (inactive) | – | 2.41 µM (inactive) | 45.4 µM (inactive) | 11.4 µM (inactive) | 17.8 µM (inactive) | 5.7 µM (inactive) | 4.51 µM (inactive) | 14 µM (inactive) | 4.47 µM (inactive) |
| CC12C(=O)OC(=O)C1(C)C1C=CC2O1 (stereo unspecified) | > 100 µM (inactive) | > 100 µM (inactive) | > 100 µM (inactive) | > 100 µM (inactive) | – | > 100 µM (inactive) | 67.6 µM (inactive) | > 100 µM (inactive) | > 100 µM (inactive) | 30.3 µM (inactive) | > 100 µM (inactive) | 59.7 µM (inactive) | 62.8 µM (inactive) | > 100 µM (inactive) | > 100 µM (inactive) | > 100 µM (inactive) | > 100 µM (inactive) | > 100 µM (inactive) | 62.1 µM (inactive) | 64.9 µM (inactive) |
| COc1ccc2nc3cc([N+](=O)[O-])ccc3c(Nc3ccc(S(=O)(=O)Nc4ncccn4)cc3)c2c1 | > 100 µM (inactive) | > 76.9 µM (inactive) | > 100 µM (inactive) | > 59 µM (inactive) | > 64.9 µM (inactive) | > 67.3 µM (inactive) | 48.3 µM (inactive) | – | > 71.1 µM (inactive) | > 50.4 µM (inactive) | 30.6 µM (inactive) | 40 µM (inactive) | 99.5 µM (inactive) | > 85.5 µM (inactive) | > 43.4 µM (inactive) | > 100 µM (inactive) | 6.24 µM (inactive) | > 76.7 µM (inactive) | 19.4 µM (inactive) | 48.8 µM (inactive) |
| Cn1c2ccccc2c2c3c(c4c5ccccc5n(C)c4c21)C(=O)c1ccccc1C3=O | 59.4 µM (inactive) | > 100 µM (inactive) | 44.9 µM (inactive) | 96.8 µM (inactive) | 31.1 µM (inactive) | 51.3 µM (inactive) | 29.5 µM (inactive) | 18.6 µM (inactive) | 18.9 µM (inactive) | 41.8 µM (inactive) | 45.8 µM (inactive) | – | 44.1 µM (inactive) | > 100 µM (inactive) | 40.3 µM (inactive) | 48.9 µM (inactive) | 18.7 µM (inactive) | 79.1 µM (inactive) | 67.3 µM (inactive) | 76.9 µM (inactive) |
| Clc1ccc(Cc2nc3cc(Cl)c(Cl)cc3n2CC2CCCN3CCCCC23)cc1Cl (stereo unspecified) | 4.93 µM (inactive) | – | 3.28 µM (inactive) | 1.65 µM (inactive) | 9.14 µM (inactive) | 3.83 µM (inactive) | 1.79 µM (inactive) | – | 1.74 µM (inactive) | 16 µM (inactive) | 4.12 µM (inactive) | 3.32 µM (inactive) | 3.37 µM (inactive) | 2.99 µM (inactive) | 6.34 µM (inactive) | 1.11 µM (active) | 2.78 µM (inactive) | 1.48 µM (inactive) | 0.335 µM (active) | 2.01 µM (inactive) |
| N=C(N)N/N=C/c1c(-c2ccc(Cl)c([N+](=O)[O-])c2)nc2sc(Cl)cn12 | 2.47 µM (inactive) | 0.565 µM (active) | 2.83 µM (inactive) | 3.27 µM (inactive) | 3.85 µM (inactive) | 2.25 µM (inactive) | 2.84 µM (inactive) | 3.68 µM (inactive) | 1.51 µM (inactive) | 1.51 µM (inactive) | 1.88 µM (inactive) | 2.68 µM (inactive) | 2.2 µM (inactive) | 1.94 µM (inactive) | 1.69 µM (inactive) | – | 1.44 µM (inactive) | 2.2 µM (inactive) | 1.84 µM (inactive) | 2.79 µM (inactive) |
| CC(C)(C)OC(=O)N1CCC(NC(=O)NC2CCN(C(=O)OC(C)(C)C)CC2)CC1 | > 100 µM (inactive) | > 100 µM (inactive) | > 100 µM (inactive) | > 100 µM (inactive) | > 100 µM (inactive) | > 100 µM (inactive) | > 100 µM (inactive) | > 100 µM (inactive) | > 100 µM (inactive) | > 100 µM (inactive) | > 100 µM (inactive) | > 100 µM (inactive) | > 100 µM (inactive) | > 100 µM (inactive) | > 100 µM (inactive) | – | > 100 µM (inactive) | > 100 µM (inactive) | > 100 µM (inactive) | > 100 µM (inactive) |
